Results taken from patent US20100267561A1, “HERBICIDAL PYRIDAZINONE DERIVATIVES” (priority 2007, published 2010).
Read-outs that look alike come from different tables or passages of the source.

Tests used:
Test in all cases: Test B pre-/postemergence plant response
Type in all cases: in vivo
corn (Zea mays) = conditions: Zea mays; for Corn plant response rating (crop injury, 0 = no effect, 100 = complete kill) at 16 g/ha: 16 g ai/ha; for Corn plant response rating (crop injury, 0 = no effect, 100 = complete kill) at 31 g/ha: 31 g ai/ha, 100 complete control; for Corn plant response rating (crop injury, 0 = no effect, 100 = complete kill) at 62 g/ha: 62 g ai/ha; for Corn plant response rating (crop injury, 0 = no effect, 100 = complete kill) at 125 g/ha: 125 g ai/ha
Source text: (§1) Seeds of plant species selected from blackgrass (Alopecurus myosuroides), downy bromegrass (Bromus tectorum), green foxtail (Setaria viridis), Italian ryegrass (Lolium multiflorum), wheat (Triticum aestivum), wild oat (Avena fatua), catchweed bedstraw (Galium aparine), bermudagrass (Cynodon dactylon), surinam grass (Brachiaria decumbens), cocklebur (Xanthium strumarium), corn (Zea mays), large crabgrass (Digitaria sanguinalis), woolly cupgrass (Eriochloa villosa), giant foxtail (Setaria faberii), goosegrass (Eleusine indica), johnsongrass (Sorghum halepense), kochia (Kochia scoparia), lambsquarters (Chenopodium album), morningglory (Ipomoea coccinea), eastern black (E.B.) nightshade (Solanum ptycanthum), yellow nutsedge (Cyperus esculentus), pigweed (Amaranthus retroflexus), common ragweed (Ambrosia elation), Russian thistle (Salsola iberica), soybean (Glycine max), common (oilseed) sunflower (Helianthus annuus), and velvetleaf (Abutilon theophrasti) were planted and treated preemergence with test chemicals formulated in a non-phytotoxic solvent mixture which included a surfactant.
(§2) At the same time, plants selected from these crop and weed species and also winter barley (Hordeum vulgare), canarygrass (Phalaris minor), chickweed (Stellaria media) and windgrass (Apera spica-venti) were treated with postemergence applications of some of the test chemicals formulated in the same manner. Plants ranged in height from 2 to 18 cm (1- to 4-leaf stage) for postemergence treatments.
(§3) Plant species in the flooded paddy test consisted of rice (Oryza sativa), umbrella sedge (Cyperus difformis), ducksalad (Heteranthera limosa) and barnyardgrass (Echinochloa crus-galli) grown to the 2-leaf stage for testing. At time of treatment, test pots were flooded to 3 cm above the soil surface, treated by application of test compounds directly to the paddy water, and then maintained at that water depth for the duration of the test. Treated plants and controls were maintained in a greenhouse for 13 to 15 days, after which time all species were compared to controls and visually evaluated. Plant response ratings, summarized in Table B, are based on a scale of 0 to 100 where 0 is no effect and 100 is complete control. A dash (-) response means no test result.

[1] = test system: surinam grass (Brachiaria decumbens); conditions: Urochloa decumbens, read-out: Plant response rating, Surinam Grass; for pest or weed control at 16 g/ha: 16 g ai/ha; for pest or weed control at 31 g/ha: 31 g ai/ha, 100 complete control; for pest or weed control at 62 g/ha: 62 g ai/ha; for pest or weed control at 125 g/ha: 125 g ai/ha
Source text: as §1, §2, §3

[2] = test system: downy bromegrass (Bromus tectorum); conditions: Bromus tectorum, read-out: Plant response rating, Bromegrass, Downy; for pest or weed control at 16 g/ha: 16 g ai/ha; for pest or weed control at 31 g/ha: 31 g ai/ha, 100 complete control; for pest or weed control at 62 g/ha: 62 g ai/ha; for pest or weed control at 125 g/ha: 125 g ai/ha
Source text: as §1, §2, §3

[3] = test system: woolly cupgrass (Eriochloa villosa); conditions: Eriochloa villosa, read-out: Plant response rating, Cupgrass, Woolly; for pest or weed control at 16 g/ha: 16 g ai/ha; for pest or weed control at 31 g/ha: 31 g ai/ha, 100 complete control; for pest or weed control at 62 g/ha: 62 g ai/ha; for pest or weed control at 125 g/ha: 125 g ai/ha
Source text: as §1, §2, §3

[4] = test system: eastern black (E.B.) nightshade (Solanum ptycanthum); conditions: Solanum, pre-emergence, Preemergence, read-out: Plant response rating, Nightshade, E. B.
Source text: as §1, §2, §3

[5] = test system: morningglory (Ipomoea coccinea); conditions: Ipomoea, read-out: Plant response rating, Morningglory; for pest or weed control at 16 g/ha: 16 g ai/ha; for pest or weed control at 31 g/ha: 31 g ai/ha, 100 complete control; for pest or weed control at 62 g/ha: 62 g ai/ha; for pest or weed control at 125 g/ha: 125 g ai/ha
Source text: as §1, §2, §3

[6] = test system: velvetleaf (Abutilon theophrasti); conditions: Abutilon theophrasti, read-out: Plant response rating, Velvetleaf; for pest or weed control at 16 g/ha: 16 g ai/ha; for pest or weed control at 31 g/ha: 31 g ai/ha, 100 complete control; for pest or weed control at 62 g/ha: 62 g ai/ha; for pest or weed control at 125 g/ha: 125 g ai/ha
Source text: as §1, §2, §3

kochia (Kochia scoparia) = conditions: Postemergence
Source text: as §1, §2, §3

[7] = test system: pigweed (Amaranthus retroflexus); conditions: Amaranthus retroflexus, post-emergence, Postemergence, read-out: Plant response rating, Pigweed
Source text: as §1, §2, §3

[8] = test system: bermudagrass (Cynodon dactylon); conditions: Cynodon dactylon, read-out: Plant response rating, Bermudagrass; for pest or weed control at 16 g/ha: 16 g ai/ha; for pest or weed control at 31 g/ha: 31 g ai/ha, 100 complete control; for pest or weed control at 62 g/ha: 62 g ai/ha; for pest or weed control at 125 g/ha: 125 g ai/ha
Source text: as §1, §2, §3

[9] = test system: green foxtail (Setaria viridis); conditions: Setaria viridis, read-out: Plant response rating, Foxtail, Green; for pest or weed control at 16 g/ha: 16 g ai/ha; for pest or weed control at 31 g/ha: 31 g ai/ha, 100 complete control; for pest or weed control at 62 g/ha: 62 g ai/ha; for pest or weed control at 125 g/ha: 125 g ai/ha
Source text: as §1, §2, §3

[10] = test system: Italian ryegrass (Lolium multiflorum); conditions: Lolium multiflorum, read-out: Plant response rating, Ryegrass, Italian; for pest or weed control at 16 g/ha: 16 g ai/ha; for pest or weed control at 31 g/ha: 31 g ai/ha, 100 complete control; for pest or weed control at 62 g/ha: 62 g ai/ha; for pest or weed control at 125 g/ha: 125 g ai/ha
Source text: as §1, §2, §3

soybean (Glycine max) = conditions: Glycine max, read-out: Plant response rating, Soybean; for plant injury at 16 g/ha: 16 g ai/ha; for plant injury at 31 g/ha: 31 g ai/ha, 100 complete control; for plant injury at 62 g/ha: 62 g ai/ha; for plant injury at 125 g/ha: 125 g ai/ha
Source text: as §1, §2, §3

[11] = post-emergence, Postemergence, scale 0 to 100
[12] = post-emergence, Postemergence, scale 0 to 100, 0 no effect
[13] = pre-emergence, Preemergence, scale 0 to 100 (0 no effect, 100 complete control)
[14] = pre-emergence, Preemergence, 0 to 100 scale, 0 no effect
[15] = pre-emergence, Preemergence, scale 0 to 100
[16] = 31 g ai/ha, scale 0 to 100, 0 no effect, 100 complete control

CCc1cc(-c2ccc(C(F)(F)F)cc2)nn1-c1c(O)cnn(C)c1=O [Compound 11, 4-[5-ethyl-3-[4-(trifluoromethyl)phenyl]-1H-pyrazol-1-yl]-5-hydroxy-2-methyl-3(2H)-pyridazinone]
0: Plant response rating, Kochia (kochia (Kochia scoparia); 16 g ai/ha, scale 0 to 100) | Plant response rating, Kochia (kochia (Kochia scoparia); [16]) | Plant response rating, Kochia (kochia (Kochia scoparia); 62 g ai/ha, scale 0 to 100) | Plant response rating, Kochia (kochia (Kochia scoparia); 125 g ai/ha, scale 0 to 100)
90%: pest or weed control at 31 g/ha [2, 12] | pest or weed control at 16 g/ha [10, 13]
98%: pest or weed control at 62 g/ha [2, 11] | pest or weed control at 62 g/ha [2, 15]
85%: Corn plant response rating (crop injury, 0 = no effect, 100 = complete kill) at 31 g/ha (corn (Zea mays); [14]) | pest or weed control at 16 g/ha [2, 11] | pest or weed control at 16 g/ha [9, 11]
50%: pest or weed control at 16 g/ha [2, 13]
95%: Corn plant response rating (crop injury, 0 = no effect, 100 = complete kill) at 62 g/ha (corn (Zea mays); [15]) | pest or weed control at 31 g/ha [2, 14] | pest or weed control at 16 g/ha [3, 11]
0%: pest or weed control at 31 g/ha ([4]; 31 g ai/ha, 0 to 100 scale, 0 no effect, 100 complete control) | pest or weed control at 62 g/ha ([4]; 62 g ai/ha, scale 0 to 100) | pest or weed control at 125 g/ha ([4]; 125 g ai/ha, scale 0 to 100) | pest or weed control at 16 g/ha [5, 11] | pest or weed control at 31 g/ha [5, 12] | pest or weed control at 62 g/ha [5, 11] | pest or weed control at 125 g/ha [5, 11] | pest or weed control at 16 g/ha [5, 13] | pest or weed control at 31 g/ha [5, 14] | pest or weed control at 62 g/ha [5, 15] | pest or weed control at 125 g/ha [5, 15] | pest or weed control at 16 g/ha [6, 11] | pest or weed control at 31 g/ha [6, 12] | pest or weed control at 62 g/ha [6, 11] | pest or weed control at 125 g/ha [6, 11] | pest or weed control at 16 g/ha [6, 13] | pest or weed control at 31 g/ha [6, 14] | pest or weed control at 62 g/ha [6, 15] | pest or weed control at 125 g/ha [6, 15] | pest or weed control at 16 g/ha ([7]; 16 g ai/ha, scale 0 to 100) | pest or weed control at 31 g/ha [7, 16] | pest or weed control at 62 g/ha ([7]; 62 g ai/ha, scale 0 to 100) | plant injury at 16 g/ha (soybean (Glycine max); [11]) | plant injury at 31 g/ha (soybean (Glycine max); [12]) | plant injury at 62 g/ha (soybean (Glycine max); [11]) | plant injury at 125 g/ha (soybean (Glycine max); [11]) | plant injury at 16 g/ha (soybean (Glycine max); [13]) | plant injury at 31 g/ha (soybean (Glycine max); [14]) | plant injury at 62 g/ha (soybean (Glycine max); [15]) | plant injury at 125 g/ha (soybean (Glycine max); [15])
70%: Corn plant response rating (crop injury, 0 = no effect, 100 = complete kill) at 16 g/ha (corn (Zea mays); [13])
5%: pest or weed control at 125 g/ha ([7]; 125 g ai/ha, scale 0 to 100)
100%: Corn plant response rating (crop injury, 0 = no effect, 100 = complete kill) at 16 g/ha (corn (Zea mays); [11]) | Corn plant response rating (crop injury, 0 = no effect, 100 = complete kill) at 31 g/ha (corn (Zea mays); [12]) | Corn plant response rating (crop injury, 0 = no effect, 100 = complete kill) at 62 g/ha (corn (Zea mays); [11]) | Corn plant response rating (crop injury, 0 = no effect, 100 = complete kill) at 125 g/ha (corn (Zea mays); [11]) | Corn plant response rating (crop injury, 0 = no effect, 100 = complete kill) at 125 g/ha (corn (Zea mays); [15]) | pest or weed control at 16 g/ha [1, 11] | pest or weed control at 31 g/ha [1, 12] | pest or weed control at 62 g/ha [1, 11] | pest or weed control at 125 g/ha [1, 11] | pest or weed control at 16 g/ha [1, 13] | pest or weed control at 31 g/ha [1, 14] | pest or weed control at 62 g/ha [1, 15] | pest or weed control at 125 g/ha [1, 15] | pest or weed control at 125 g/ha [2, 11] | pest or weed control at 125 g/ha [2, 15] | pest or weed control at 31 g/ha [3, 12] | pest or weed control at 62 g/ha [3, 11] | pest or weed control at 125 g/ha [3, 11] | pest or weed control at 16 g/ha [3, 13] | pest or weed control at 31 g/ha [3, 14] | pest or weed control at 62 g/ha [3, 15] | pest or weed control at 125 g/ha [3, 15] | pest or weed control at 16 g/ha [8, 11] | pest or weed control at 31 g/ha [8, 12] | pest or weed control at 62 g/ha [8, 11] | pest or weed control at 125 g/ha [8, 11] | pest or weed control at 16 g/ha [8, 13] | pest or weed control at 31 g/ha [8, 14] | pest or weed control at 62 g/ha [8, 15] | pest or weed control at 125 g/ha [8, 15] | pest or weed control at 31 g/ha [9, 12] | pest or weed control at 62 g/ha [9, 11] | pest or weed control at 125 g/ha [9, 11] | pest or weed control at 16 g/ha [9, 13] | pest or weed control at 31 g/ha [9, 14] | pest or weed control at 62 g/ha [9, 15] | pest or weed control at 125 g/ha [9, 15] | pest or weed control at 16 g/ha [10, 11] | pest or weed control at 31 g/ha [10, 12] | pest or weed control at 62 g/ha [10, 11] | pest or weed control at 125 g/ha [10, 11] | pest or weed control at 31 g/ha [10, 14] | pest or weed control at 62 g/ha [10, 15] | pest or weed control at 125 g/ha [10, 15]
